Test results: PubChem BioAssay AID179 (DTP/NCI, 2004)
Calls of active or inactive are those of the source.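 Rule for the calls: active = compounds giving half or more protection of infected cells from virus-caused growth loss, again on retest; inactive = the rest.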

Test system: CEM cells HIV-1 protection, formazan growth assay
Experiment: NCI AIDS Antiviral Assay
Settings: for IC50: measured here: growth of uninfected CEM cells
Procedure, shortened: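 Soluble formazan readout of cell growth; CEM cells ± HIV-1; 5 drug concs. ≥50% protection → retest; ≥50% again = moderately active; reproducible 100% = confirmed active.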

SMILES	EC50 [µM]	IC50 [µM]	outcome
O=c1[nH]cnc2c1CN(c1ccccc1)C2	> 234	> 234	–
CCO[C@@H]1CCC(S(=O)c2ccc(C)cc2)=CO1 (some centres undefined)	> 200	> 200	–
c1cncc(CN2CCCC2)c1	–	–	inactive
O=C(OCC1OC2OC(c3ccccc3)(n3ccc4c([N+](=O)[O-])ccnc43)OC2C1OC(=O)c1ccccc1)c1ccccc1 (centres undefined)	> 200	145	–
NNC(=O)c1ccc(-n2nnc(C(=O)NN)c2C(=O)NN)cc1	> 501	> 501	–
CC(=O)Oc1ccc(Nn2c3ccccc3c3ccccc32)c(C)c1	> 200	11.7	–
CN/N=C(\C(=O)Nc1ccc(C(F)(F)F)cc1[N+](=O)[O-])C(c1cnc2ccc([N+](=O)[O-])cc2n1)[N+](=O)[O-] (centres undefined)	> 251	138	–
CCOC(=O)CCC(NC(=O)c1ccc(OCc2nc3cc(C(F)(F)F)ccc3nc2-c2ccccc2)cc1)C(=O)OCC (centres undefined)	> 200	27.5	–
O=C1CCCc2cc3c(cc21)CC1(Cc2ccccc2C1)C3	> 200	1.29	–
O=c1n(-c2ccccc2)c(=O)n2n1C1C3C4C3C2C2(F)C4C12 (centres undefined)	> 200	> 200	–
CCC1CC2C(=O)N(c3ccccc3)C(=O)C2c2[nH]c3ccccc3c21 (centres undefined)	–	–	inactive
COc1cc(-c2cc(=O)c3cc(Cl)cc(Cl)c3o2)cc(OC)c1OC	> 100	> 100	–
CCN(CC)C(=O)c1cccc2cccc(OC)c12	–	–	inactive
COc1ccc(-c2oc3cc(O)c(OC)c(O)c3c(=O)c2OC2OC(CO)C(O)C(O)C2O)cc1 (centres undefined)	–	–	inactive
CCC(=O)CCCC=C(c1cc(Cl)c(OC)c(CO)c1)c1cc(Cl)c(OC)c(CO)c1	> 200	14.1	–
O=C1O/C(=C(\Br)c2ccccc2)c2ccccc21	> 200	3.63	–
COc1cc2c(c(OC)c1OC)-c1cccc(=O)cc1C(NC(C)=O)CC2 (centres undefined)	> 2	0.0389	–
COc1ccc2c(=O)oc3c(OC)cc(CCN(C)C)c4c(=O)oc1c2c34	–	–	inactive
COC(=O)CSC(=S)Nc1nnc(NC(=S)SCOC(C)=O)n1C(=S)SCC(=O)OC	> 200	> 200	–
COc1ccc(/C=N/O)cc1OC	> 1380	776	–
CCCc1cc(=O)oc2c3c(cc(OC(C)C)c12)O[C@@H](C)[C@H](C)[C@H]3O	> 200	11.7	–

SMILES	EC50 [µM]	IC50 [µM]	outcome
CCCCNCCC(SSSC(CCNCCCC)c1ccc(Cl)cc1)c1ccc(Cl)cc1 (centres undefined)	> 200	3.47	–
CC(C)(C)NC(=O)c1ccccc1[Se][Se]c1ccccc1C(=O)NC(C)(C)C	10.2	13.2	–
Cc1nc(N)c(-c2ccccc2)s1	> 135	> 135	–
COc1ccc2c(c1)nc1n2C(c2c(Cl)cccc2Cl)SC1 (centres undefined)	> 200	33.1	–
O=c1cc2ccccc2nn1Cc1cccc(Cl)c1	> 115	102	–
O=C(NC(=Nc1ccccc1)SCSC(=Nc1ccccc1)NC(=O)c1ccc(F)cc1)c1ccc(F)cc1	> 200	> 200	–
Cl[Si]1(Cl)Oc2ccccc2O[Si](Cl)(Cl)Oc2ccccc2O1	> 12.6	> 12.6	–
CC1(CCCC2(C)CCNC2=O)OCCO1 (centres undefined)	> 200	> 200	–
O=C(N1CCCCC(Cl)(Cl)C1=O)C(Cl)(Cl)Cl	> 759	> 759	–
O=C(C[P+](c1ccccc1)(c1ccccc1)c1ccccc1)c1ccc([N+](=O)[O-])cc1	> 200	19.1	–
COc1nc(OC)c2c(=O)oc(-c3ccccc3)cc2n1	–	–	inactive
NC1=NN(c2ccccc2)C(=O)C1/C(=N\NC(=O)c1cc2ccccc2cc1O)C(=O)Nc1ccc(Cl)c(Cl)c1 (centres undefined)	> 45.7	> 45.7	–
Cn1cc2c(=O)n(OS(=O)(=O)c3ccccc3)c(=O)[nH]c2n1	> 200	> 200	–
O=c1[nH]c2ccccc2c(=O)c2ccccc12	> 32.4	> 32.4	–
O=[N+]([O-])c1ccccc1-c1nc2nc(N3CCOCC3)nc(N3CCOCC3)n2n1	> 77.6	52.5	–
c1ccc(P2CCc3[nH]c4ccccc4c3C2)cc1 (centres undefined)	> 38	> 38	–
c1cncc(-c2ncc3cccnc3n2)c1	> 100	> 100	–
COc1ccc2nc(-c3cccs3)cc(C(O)CN3CCSCC3)c2c1 (centres undefined)	–	–	inactive
Cc1nc2[nH]ncn2c(=O)c1CCO	> 200	> 200	–
O=C1CN(Cc2cccc(Cl)c2)CC(=O)N2Cc3ccccc3CN12	–	–	inactive
COC(=O)CCC(=O)c1ccc2c(c1)CC1(C2)Cc2ccc(C(=O)CCC(=O)OC)cc2C1	> 200	42.7	–

SMILES	EC50 [µM]	IC50 [µM]	outcome
CC(=O)OC12CCCCC(CCCC1)O2	> 200	> 200	–
C=CCc1cc(OC)c2c(c1)C(OC(C)=O)CC(c1ccc(OC)c(OC)c1)O2 (centres undefined)	> 46.8	> 46.8	–
C/C=C1\CN(C)C[C@@]2(C(=O)OC)Cc3c(n(OC)c4ccccc34)C(=O)C[C@@H]12	> 135	97.7	–
COc1cc(/C=C/c2ccc(OC)c(OC)c2)cc(OC)c1	–	–	inactive
CC1CCN(CCC(=O)CC(c2ccccc2)c2c(O)c3ccccc3oc2=O)CC1 (centres undefined)	> 97.7	57.5	–
Cc1cn(C2CC(N=[N+]=[N-])C(COC(=O)CCOCCCCCCCCN=[N+]=[N-])O2)c(=O)[nH]c1=O (centres undefined)	0.00631	64.6	–
C=C1CN(S(=O)(=O)c2ccc(C)cc2)CCCN(C(=O)OC(C)C)CCCN(S(=O)(=O)c2ccc(C)cc2)C1	> 200	14.1	–
COc1cccc(OC)c1NC(=O)C(=O)Nn1c(NNC(=O)c2ccncc2)nc2ccccc2c1=O	> 501	> 501	–
C[C@@H]1CN(C(=O)CCOS(C)(=O)=O)[C@@H](C)CN1C(=O)CCOS(C)(=O)=O	> 200	67.6	–
Cc1cn(C2CC(CCN(O)CC3OC(n4cc(C)c(=O)[nH]c4=O)CC3O[Si](C)(C)C(C)(C)C)C(CO[Si](C)(C)C(C)(C)C)O2)c(=O)[nH]c1=O (centres undefined)	> 200	11.5	–
CC(C)(C)Nc1noc(=O)n1C(C)(C)C	> 100	> 100	–
Nc1ccccc1C(=O)N=Nc1c(O)[nH]c2ccccc12	> 200	> 200	–
CNc1cc(Cl)ccc1C(=O)N1CCC[C@H]1CO	> 200	191	–
CC12CCC[C@@](C)(C(=O)OC3OC(CO)C(O)C(O)C3O)[C@H]1CCC13CC4CC(OC4(CO)[C@H]1O)[C@@H]23 (some centres undefined)	–	–	inactive
Nc1nc(Cl)cc(NCC2CC(O)(CO)C2)n1 (centres undefined)	> 200	> 200	–
COc1ccc(N2CCOCC2)cc1	–	–	inactive
COc1nc(C(Cl)(Cl)Cl)c(Cl)c(OC)c1Cl	> 41.7	> 41.7	–
Cc1nc(C(N)=O)c(N)n1CCN1CCN(C(=O)CCCCCCCCCCNC2N=CNc3nc[nH]c32)CC1 (centres undefined)	–	–	inactive
O=C(O)CCC(NC(=O)c1ccccc1C(=O)O)C(=O)O (centres undefined)	> 200	> 200	–
COc1ccc(C2SCC(=O)N2c2ccc(-c3ccc(-n4c(-c5ccccc5)nc5ccccc5c4=O)cc3)cc2)cc1 (centres undefined)	> 200	33.9	–
CC(=O)Oc1cc(/C=C(\C#N)C(=O)NCCCCNC(=O)/C(C#N)=C/c2cc(OC(C)=O)c(OC(C)=O)c(OC(C)=O)c2)cc(OC(C)=O)c1OC(C)=O	> 200	21.9	–
